Experimental data from patent publication US20180271930A1, “METHOD FOR RAISING POULTRY” (priority 2015, published 2018).

How the values were obtained:
myostatin = assay: Examination 1: myostatin gene expression in superficial pectoral muscle (real-time PCR, relative to RPS9); type: in vivo, broiler chicks of the Chunky breed (Ross 308); conditions: 3 days old, GSSG addition group (0.01% or 0.1% feed), FIG. 1C, n=6
From the text: FIGS. 1A to 1D illustrate graphs showing the expression of genes related to skeletal muscle cell differentiation in superficial pectoral muscles upon administration of each feed composition in Examination 1 (n=6). […] A relative value of the expression level of each factor is expressed as an average±standard deviation of values obtained by dividing the expression levels of each factor by the expression level of RPS9. Each different symbol denotes a significant difference in the […] multiple comparison test (P<0.05). Newly hatched broiler chicks of the Chunky breed (Ross 308, Ross Breeders Ltd.) were tested. […] Real-time PCR was performed by adding cDNA, a primer set, and other necessary reagents to wells of a 96-well PCR plate, preheating the plate using a thermal cycler at 95° C. for 3 minutes, followed by 35 cycles of steps of denaturation, annealing, and elongation in a repetitive manner, and measurement of […] after the elongation step for each cycle. The expression level of each gene was designated as a relative value obtained by dividing the determined amount of an amplification product of IGF-I, myostatin, MyoD, or myogenin by the amount of an amplification product of RPS9. […] The amount of GSSG used herein was determined in terms of the amount of free oxidized glutathione. […]

[1] = Examination 4: body weight of chicks raised until 35 days old after feeding GSSG or GSH for 3 days; type: in vivo, broiler chicks; conditions: 0.01% by mass additive in feed for 3 days; n = 6, average ± standard deviation
Description: Newly hatched broiler chicks (Ross Breeders Ltd.) were tested. A control group (=additive-free group), a GSSG addition group (0.01% by mass), and a GSH addition group (0.01% by mass) each consisting of 5 males and 5 females were set and fed with a feed composition for 3 days. […] At this timing, 2 males and 2 females in each group were slaughtered to collect blood and skeletal muscles. The gene expression levels of the MyoD family (myogenin, myostatin, and Pax7) were observed. […] Statistics were analyzed using a mixed model in consideration of a gender difference and an interaction between males and females. An ammonium salt was used as oxidized glutathione (GSSG). The GSSG contained 95.6% by mass of oxidized glutathione, and the content of reduced glutathione mixed therein was 0.1% by mass or less. […] A feed composition, for which the amount of oxidized glutathione (GSSG) added was set to 0.01% by mass, is described in Examination 1. A feed composition, for which the amount of reduced glutathione (GSH) added was set to 0.01% by mass, was prepared by adding 0.01% by mass of GSH, instead of 0.01% by mass of GSSG, to the GSSG-containing feed composition described in detail in Examination 1.

[2] = Examination 6: body weight at 21 days old after GSSG feed (0.01% or 0.05%) for 3 days; type: in vivo, broiler chicks; conditions: n = 12
Description: Newly hatched broiler chicks (Ross Breeders Ltd.) were fed with a feed composition containing GSSG at 0.01% by mass or 0.05% by mass for 3 days. […] Three groups, which were a control group, a GSSG addition group (0.01% by mass), and a GSSG addition group (0.05% by mass), were set. In each group, 6 males and 6 females were tested. Chicks received at 0 day old were fed with a test feed composition (initial-phase feed composition) during 72 hours after the receipt. […] Their body weights were measured. A feed composition used as an initial-phase feed composition, for which the level of GSSG was set to 0.01% by mass or […], is a composition prepared by adding GSSG at 0.01% by mass or 0.1% by mass to a composition (ME3,100 kcal/kg, CP21) containing corn, soybean meal, corn gluten meal, fat and oil, calcium carbonate (powder), tricalcium phosphate, dietary salt, DL-methionine, L-lysine chloride, choline chloride, and vitamins/minerals in accordance with the NRC requirements. The feed composition (ME3,100 kcal/kg, CP21) free of GSSG used in Examination 1 was used for the control group. […] An ammonium salt was used as GSSG. The GSSG contained 95.6% by mass of oxidized glutathione, and the content of reduced glutathione mixed therein was 0.1% by mass or less.

[3] = Examination 7: body weight at 14 days old after GSSG feed until 3, 7 or 14 days old; type: in vivo, broiler chicks; conditions: n = 12
Description: In each group, 6 males and 6 females were tested. […] The chicks were raised until they became 14 days old, and then, their body weights were measured. The feed composition (ME3,100 kcal/kg, CP21) free of GSSG used in Examination 1 was used for the control group. In the control group the chicks were raised until they became 14 days old and their body weights were measured. In the test groups 1 to 3, a feed composition used as an initial-phase feed composition, for which the level of GSSG to be added was set to 0.05% by mass, is a composition prepared by adding GSSG at 0.05% by mass to a composition (ME3,100 kcal/kg, CP21) containing corn, soybean meal, corn gluten meal, fat and oil, calcium carbonate (powder), tricalcium phosphate, dietary salt, DL-methionine, L-lysine chloride, choline chloride, and vitamins/minerals in accordance with the NRC requirements. […] An ammonium salt was used as GSSG. The GSSG contained 95.6% by mass of oxidized glutathione, and the content of reduced glutathione mixed therein was 0.1% by mass or less.

Question: With oxidized glutathione [GSSG] as the substance, how does the “myostatin expression level vs control group” value (myostatin) read?
Answer: significant decreases

Question: What about the “Weight, 14 days old” value [1] of the same substance?
Answer: 524.5 ± 37.0 g

Question: What about the “Weight, 35 days old” value [1] of the same substance?
Answer: 2164 ± 178 g

Question: What about the 21-day-old weight ([2]; GSSG 0.01% by mass in feed for 3 days) of the same substance?
Answer: 961 ± 84 g

Question: And the 21-day-old weight ([2]; GSSG 0.05% by mass in feed for 3 days)?
Answer: 986 ± 67 g

Question: And the 14-day-old weight ([3]; 0.05% by mass GSSG feed until 3 days old)?
Answer: 393 ± 17 g

Question: And the 14-day-old weight ([3]; 0.05% by mass GSSG feed until 7 days old)?
Answer: 391 ± 24 g

Question: And the 14-day-old weight ([3]; 0.05% by mass GSSG feed until 14 days old)?
Answer: 351 ± 47 g
